Here are results for 1 sequence from US8956622B2, “Peptidic antagonists of class III semaphorins/neuropilins complexes” (INSERM—Institut National de la Sante et de la Recherche …, priority 2005, dated 2015).

For assay [1], the system named is COS-1 cells expressing NRP1 and Plexin-A1. Kind of assay: COS cellular collapses triggered by Sema3A. Type of assay: cell-based. Particulars: peptide 10^−9 M, 1 hour pre-incubation, Sema 3A 4 hours. The method, then: Nevertheless, the artificial expression of NRP1 and Plexin-A1 in COS cells allows Sema 3A to trigger cellular collapses. To investigate the effect of the pTM-NRP1 peptide on the Sema3A functional properties, the shape of COS cells expressing NRP1 and Plexin-A1 was analyzed in the presence or not of Sema 3A and of pTM-NRP1 or pTM-NRP1^mut peptide.
COS-1 cells have been transfected by 1 μg of pBK-CMV (STRATAGENE) plasmids containing NRP1 and plexin-A1 coding sequences (provided by Pr. PUSCHEL; MUNSTER Universitat, Germany) with LIPOFECTAMINE 2000 (IN VITROGEN) according to the manufacturer's instructions in 6-well plates. Stably COS-1 transfected cells have been selected with 0.7% geneticine. Stably transfected COS-1 cells have been cultured on 12-well plates with previously poly-L-lysine-coated glass coverslips. Cells have been then incubated 1 hour with pTM-NRP1 or pTM-NRP1^mut peptide (10^−9M) at 37° C. The culture medium has been then removed and replaced by conditioned medium of HEK cells stably transfected or not with a construction expressing Sema 3A (100 μl/ml D-MEM) for 4 hours at 37° C. Finally, cells have been fixed with 2% formaldehyde for 30 minutes followed by 15 minutes in formaldehyde 4%. For each condition tested, about 400 cells have been analyzed.

The subject of a further assay is C6 glioma. Kind of assay: C6 glioma cells pre-incubated with peptide and injected into the striatum, tumour development at 8 days. Type of assay: in vivo, rats. The protocol: The rat C6 glioma cell line, which is a good model of human glioma (DAI and HOLLAND, Biochim. Biophys. Acta, vol. 1551, p: M19-27, 2001), has been used to investigate how the blockade of NRP1 by using our peptidic strategy (pTM-NRP1) may interfere with cell migration and dissemination.
C6 cells (ATCC CCL-107) were stained using PKH26 (Sigma). Cells were incubated with peptides (pTM-NRP1 10^−8M or mutated pTM-NRP1 10^−8M) prior to injections for at least 2 h on ice in culture medium (composed of MEM with 5000 u/ml penicillin, 5 mg/ml streptomycin, 200 mM L-glutamine and 10% fetal calf serum). Injections of 10^6 cells were performed using a stereotaxic frame according to the following coordinates: antero-posterior, +1.6 mm relative to Bregma; L, +2 mm; H, +5 mm relative to the cortical surface.
All injections were performed in the left striatum.
Following a survival period of 8 days, the animals (3 groups of 4 rats) were killed by a lethal intra-peritoneal injection of pentobarbital before trans-cardiac perfusion with a pre-rinse of 100 ml PBS followed by 500 ml of 2% formaldehyde. The brains were post-fixed during 2 hours at 4° C. and sagittal sections (70 μm) were prepared on a vibratome.
One group of sections were mounted in PBS-glycerol (v/v) for microscopic observation, and another one was treated for immunostaining of CD34. […]

For assay [2], the system named is VEGF165 signalling in C6 cells. Put plainly: VEGF165-induced migration of C6 tumour cell aggregates in 3D matrix (plasma clot). As to conditions: VEGF165 50 ng/ml, peptide 10^−8 M. Type of assay: cell-based. The protocol: NRP1 is a receptor of VEGF (NEUFELD et al., Adv. Exp. Med. Biol., vol. 515, p: 81-90, 2002). We therefore verified that pTM-NRP1 can antagonize VEGF signalling in C6 cells. To this end, C6 tumour cell aggregates prepared as previously described (see BAGNARD et al., 1998; and NASARRE et al., Neoplasia, vol. 7, p: 180-189, 2005) were grown in the 3D matrix (plasma clot) and treated with VEGF165.

As to ILITIIAMSALGVLLGAVCGVVL [pTM-NRP1], the “effect on cellular collapses of COS-1 cells triggered by Sema 3A” value in assay [1] was “completely abolished”. In the assay on C6 glioma (C6 cells treated with peptide 10^−8 M prior to injection in the left striatum, 8 days, n=4), the tumour size entry is given as “strong reduction”. Further, the “immunoreactivity for CD34, a marker of neoangiogenesis” value with C6 glioma (C6 cells treated with peptide 10^−8 M prior to injection, brain sections at 8 days) is listed as “strong reduction”. The “VEGF165-dependent C6 cells migration out of aggregates” value in assay [2] was “suppressed”.
